System: normal human dermal fibroblast cultures
Assay: Incorporation of radioactive (tritiated) thymidine into normal human dermal fibroblast cultures (fibroblast proliferation)
Format: cell-based
Settings: for % (thymidine incorporation relative to untreated control = 100) / cpm (counts per minute), tritiated thymidine incorporated: 48 hours contact, 24 hours labeling, EGF 1.67 × 10^−3 μM, vitamin C 20 μM, resveratrol 5 μM, or 5 μM resveratrol + 20 μM vitamin C; for cpm (counts per minute), tritiated thymidine incorporated: untreated control 10320; for %, difference relative to the untreated control / cpm, difference relative to the untreated control: same treatments, value in brackets
Experimental: The study has carried out by measuring the incorporation of radioactive thymidine into normal human dermal fibroblast cultures.
The fibroblast cultures were prepared according to the standard methods of cell culturing, i.e., in MEM/M199 medium marketed by Gibco, in the presence of sodium bicarbonate (1.87 mg/ml), L-glutamine (2 mM), penicillin (50 IU/ml) and 10% foetal calf serum (Gibco).
The test was carried out on cell cultures at 80% of confluence on 24-well plates. Resveratrol, at a concentration of 1.25 μM and 5 μM, was placed in contact with the cells for 48 hours. Labeling with tritiated thymidine ([methyl-3H] thymidine marketed by Amersham, 82 Ci/mmol) was carried out for 24 hours.
The level of tritiated thymidine incorporated was measured at the end of the test by acidic precipitation of the proteins on filters and counting by liquid scintillation.
The results were evaluated relative to a control consisting of cells which had not been treated.
A positive control [EGF: Epidermal Growth Factor] at 1.67×10^−3 μM, which was known to stimulate fibroblast proliferation, was introduced into the test by way of reference.

## Oc1ccc(C=Cc2cc(O)cc(O)c2)cc1 [resveratrol, 3,4′,5-Trihydroxystilbene]
  % (thymidine incorporation relative to untreated control = 100): 110%
  cpm (counts per minute), tritiated thymidine incorporated: 11365 cpm
  %, difference relative to the untreated control: +10%
  cpm, difference relative to the untreated control: (+1045) cpm

## O=C1O[C@H]([C@@H](O)CO)C(O)=C1O [vitamin C, ascorbic acid]
  % (thymidine incorporation relative to untreated control = 100): 132%
  cpm (counts per minute), tritiated thymidine incorporated: 13595 cpm
  %, difference relative to the untreated control: +32%
  cpm, difference relative to the untreated control: (+3275) cpm

## EGF: Epidermal Growth Factor, positive control known to stimulate fibroblast proliferation
  % (thymidine incorporation relative to untreated control = 100): 283%
  cpm (counts per minute), tritiated thymidine incorporated: 29214 cpm
  %, difference relative to the untreated control: +183%
  cpm, difference relative to the untreated control: (+18894) cpm

Reference: patent US6753000B2, “Hydroxystilbene/ascorbic acid compositions for treating skin afflictions” (L'Oreal, priority 1999, dated 2004)
